Results published in patent publication US9072901B2, “Cardiac neuromodulation and methods of using same” (The Board of Regents of the University of Oklahoma, priority 2001, dated 2015).

How the values were obtained:
[1] = test system: C1-C2 spinal neurons; test: Vagal inhibition of T3 neuron after ibotenic acid on dorsal C1-C2 spinal cord; type: in vivo; settings: approximately 20 min after ibotenic acid was placed on the spinal cord
Description: FIGS. […] Electrical stimulation of the left cervical vagus (A: LCVS; {30 V, 0.1 ms} ipsilateral to the cell) right cervical vagus (B; RCVS; contralateral) at different frequencies. Vagal stimulation reduced the discharge rate of the evoked response to noxious stimulation of the cardiac afferents intrapericardial injections of bradykinin (C). IA; ibotenic acid. The short horizontal bars represent the period of vagal stimulation, the long horizontal bar represents the bradykinin injection and the numbers indicate the frequencies tested.
Chemical disruption of the C1-C2 spinal neurons alters the effects of stimulation of the cardiac afferent input on the regulation of information processing in the cervical and thoracic spinal cord. In order to produce chemical disruption of cells, ibotenic acid was chosen because it is an excitotoxin that has been used effectively in previous studies. Ibotenic acid is a structurally rigid glutamate analog that destroys neuronal perikarya, but spares axons and non-neuronal cells. After ibotenic acid is injected into a nucleus or applied to the surface of the spinal cord, the cells in the region are initially excited and then enter a phase of depolarization block. […] The advantage of this methodology is that the neuronal relays in the C1-C2 segments can be disrupted without interrupting the axons that pass through this region. […]

[2] = test system: C1 dorsal horn cells; test: Annexin fluorescence histochemistry after ibotenic acid pledget on C1-C2 spinal segments; type: in vivo, rats; settings: pledget on C1-C2 for 2 hrs, after 14-16 hrs
Description: After 14-16 hrs, rats were perfused with fixative and the medulla, C1-2, C3-5 segments were processed for annexin fluorescence histochemistry. Photomicrographs are from the C1 dorsal horn and the gray matter is outlined. […] White arrows point to unlabeled (black) cells in the dorsal horn. […] Annexin binding indicates cells with energy impairment and/or undergoing apotosis. Annexin belongs to a family of proteins that bind acidic phospholipids, particularly phosphotidylserine (PS). PS is assymetically distributed in the cell membrane by the enzyme, aminophospholipid translocase. Following energy impairment, PS distributes to the outer cell leaflet and annexin binding illustrates cells with PS on the outside of the cell.
Chemical disruption of the C1-C2 spinal neurons alters the effects of stimulation of the cardiac afferent input on the regulation of information processing in the cervical and thoracic spinal cord. In order to produce chemical disruption of cells, ibotenic acid was chosen because it is an excitotoxin that has been used effectively in previous studies. Ibotenic acid is a structurally rigid glutamate analog that destroys neuronal perikarya, but spares axons and non-neuronal cells. After ibotenic acid is injected into a nucleus or applied to the surface of the spinal cord, the cells in the region are initially excited and then enter a phase of depolarization block. […]

Structure (SMILES): N[C@H](C(=O)O)c1cc(=O)[nH]o1 [ibotenic acid]
- inhibitory effects to vagal stimulation [1]: eliminated
- annexin staining of cells [2]: many annexin positive
